# Patent publication US20030044974A1, “Method for collecting cells in M phase or G1 phase and method for nuclear transplantation using the cells” (priority 2001, published 2003)
# Marks after values point to notes of the source that are not given here.
# Columns and labels:
# [1] = test system: cells; details: nocodazole treatment, cells collected by the shaking method; cited from earlier work
# [2] = test system: bovine fibroblast cells; assay: Combination of metaphase-synchronizing agent and shaking treatment: cell cycles of cells recovered from culture supernatant (Comparative Example 2); assay type: cell-based
# Procedure: Fibroblast Cells and Observation Thereof Fetal fibroblast cells were recovered by collecting the medium containing the cells in a 15 ml test tube and by centrifuging the medium (180g, 5 minutes). After the centrifugation, the cell precipitate was resuspended with a small amount of the medium, and the resulting cell suspension was uniformly smeared on a slide glass. The slide glass was air-dried at room temperature and the cells were fixed (99.9% ethanol, 5 minutes) to prepare preparations.
# Thirty minutes later, the whole culture supernatant was recovered after subjecting the petri dish to shaking treatment, or without the shaking treatment. The shaking treatment was carried out by intimately attaching the bottom plate of the plastic petri dish to a mixer (IKEDA RIKA, D-10) and driving the mixer to circularly move the petri dish for 1 minute (3000 rpm, diameter of circular movement: 0.3 cm). […] The cell pellet was resuspended in a small amount of the medium and the obtained cell suspension was smeared on a slide glass.
# How the cell cycles of the cells recovered from the culture supernatant change by combination of the metaphase-synchronizing agent (2-MeOE2) and the shaking treatment was investigated with successively repeating the step of shaking treatment and the subsequent recovery 3 times. […] Thirty minutes later, shaking treatment was performed as in the first time and the second time, and the culture supernatant was centrifuged to recover the cells (third time recovered cells). The cells obtained using different concentrations of the metaphase-synchronizing agent and obtained in different times of recovery were respectively resuspended in a small amount of the medium and smear preparations were prepared. The smear preparations were air-dried, fixed, stained and observed.
# [3] = test system: bovine fibroblast cells; assay: Collection of M phase cells: synchronization, shaking treatment and selection by size with 20 μm pipette (Example 1)
# Text: As the bovine fibroblast cells (Japanese black), the cells from a fetal at Day 54 from conception were used. The recovered fetus was aseptically minced and digested with trypsin. The cell suspension was recovered and cultured in Dulbecco's modified eagle medium (D-MEM, Gibco BRL, Cat No. 11885-084, MD, USA), followed by storing frozen cells (one passage). For experiments, the frozen stored cells seeded on a 10 cm plastic petri dish (Falcon, 353003) were once subcultured, and the cells grown to logarithmic growth phase were used.
# For synchronization to metaphase, 10% FBS-containing minimum essential medium (S-MEM, Cat. No.11385-036,Gibco BRL, MD, USA) supplemented with 2-methoxyestadiol (2-MeOE2, Cat No.M6383, Sigma chemical Co., MO, USA) to a concentration of 0.5 μM or 1 μM was used.
# Each preparation was stained with Hoechst 33342 (Sigma Chemical Co, MO, USA) and observed with a fluorescence microscope. Only the cells having clear boundary of cell membrane were used for judgment. In Comparative Examples 1 and 2, the cells in prophase, metaphase, anaphase and telophase of cell cycle were classified into the cells in mitotic phase (M phase). The cells containing only one nucleus covered with a nuclear membrane were judged as the cells in interphase. The cells in which the nucleus in the cytoplasm is fragmented, the cells containing no nucleus in the cytoplasm, and the cells having a lot of nuclei in the cytoplasm were judged as abnormal cells. In Examples 1 and 2, M phase cells were further classified into normal metaphase cells (the one nucleus in metaphase is located in the cytoplasm) and abnormal metaphase cells (the two or more nuclei in metaphase are located in the cytoplasm). The cells in interphase were classified into normal interphase cells (only one nucleus having nuclear membrane exists in the cytoplasm) and abnormal interphase cells (two or more nuclei having nuclear membrane exist in the cytoplasm, or the nucleus in the cytoplasm is fragmented).
# D-MEM medium in a petri dish containing cells in logarithmic growth phase was replaced with 5 ml of S-MEM medium containing 1.0 μM 2-MeOE2, and the culturing was continued. Thirty minutes later, the shaking treatment was carried out as in Comparative Example 1 and the culture supernatant was discarded. To the petri dish after discarding the culture supernatant, fresh S-MEM medium containing 1 μM 2-MeOE2 was added and the culture was continued for another 30 minutes. Thirty minutes later, the shaking treatment was carried out as described above and the culture supernatant was centrifuged (1000 rpm, 5 minutes) to recover the cells (second time recovered cells). An aliquot of the collected cells was transferred to D-MEM medium containing 1 μM 2-MeOE2, and substantially spherical cells having clear boundary of cell membrane and having a diameter slightly larger than 20 μm were selected within 30 minutes using a glass pipette (COOK, Cat.No.PBBP-2000) having an inner diameter of 20 μm. The selected cells were immediately transferred to phosphate buffered saline (D-PBS) containing Hoechst33342 and 1 μM 2-MeOE2, and cell cycles were determined under an inverted fluorescence microscope.
# [4] = 0.5 μM 2-MeOE2, first time recovered cells
# [5] = 0.5 μM 2-MeOE2, first time recovered cells, of 2046 observed cells
# [6] = 0.5 μM 2-MeOE2, second time recovered cells
# [7] = 0.5 μM 2-MeOE2, second time recovered cells, of 2078 observed cells
# [8] = 0.5 μM 2-MeOE2, third time recovered cells
# [9] = 0.5 μM 2-MeOE2, third time recovered cells, of 2052 observed cells
# [10] = 1 μM 2-MeOE2, first time recovered cells
# [11] = 1 μM 2-MeOE2, first time recovered cells, of 2033 observed cells
# [12] = 1 μM 2-MeOE2, second time recovered cells
# [13] = 1 μM 2-MeOE2, second time recovered cells, of 2075 observed cells
# [14] = 1 μM 2-MeOE2, third time recovered cells
# [15] = 1 μM 2-MeOE2, third time recovered cells, of 2126 observed cells
# [16] = 1 μM 2-MeOE2, second culture, shaking treatment, diameter not less than about 20 μm
# [17] = 1 μM 2-MeOE2, second time recovered cells, 20 μm pipette, of 249 observed cells
# [18] = 1 μM 2-MeOE2, second time recovered cells, selected with 20 μm pipette
structure (smiles),measurement,setting,value
COC(=O)Nc1nc2ccc(C(=O)c3cccs3)cc2[nH]1 [nocodazole],cells in the metaphase obtained,[1],25 to 34%
"COc1cc2c(cc1O)CC[C@@H]1[C@@H]2CC[C@]2(C)[C@@H](O)CC[C@@H]12 [2-MeOE2, 2-methoxyestradiol]",Number of Metaphase Cells (mean ± SD(%)),"[2]; 0.5 μM 2-MeOE2, 30 min, first time recovered cells, shaking treatment",(28.8 ± 3.0^a) %
same,Number of Abnormal Cells (mean ± SD(%)),[2]; [4],(15.4 ± 5.8^a) %
same,Number of Normal Interphase Cells (mean ± SD(%)),[2]; [4],(55.8 ± 3.6^a) %
same,Number of Abnormal Cells,[2]; [5],313
same,Number of Metaphase Cells,[2]; [5],591
same,Number of Normal Interphase Cells,[2]; [5],1142
same,Number of Abnormal Cells (mean ± SD(%)),[2]; [6],(6.6 ± 4.2^bc) %
same,Number of Metaphase Cells (mean ± SD(%)),[2]; [6],(45.2 ± 7.9^bc) %
same,Number of Abnormal Cells,[2]; [7],135
same,Number of Metaphase Cells,[2]; [7],940
same,Number of Normal Interphase Cells,[2]; [7],1003
same,Number of Abnormal Cells (mean ± SD(%)),[2]; [8],(6.4 ± 3.9^c) %
same,Number of Metaphase Cells (mean ± SD(%)),[2]; [8],(46.0 ± 7.5^c) %
same,Number of Normal Interphase Cells (mean ± SD(%)),[2]; [8],(47.6 ± 4.7^c) %
same,Number of Abnormal Cells,[2]; [9],130
same,Number of Metaphase Cells,[2]; [9],945
same,Number of Normal Interphase Cells,[2]; [9],977
same,percentage of the M phase cells,"[2]; 0.5 μM or 1.0 μM 2-MeOE2 with shaking treatment, first to third time recovered cells, shaking only 26.1%",28.8 to 81.2%
same,Number of Abnormal Cells (mean ± SD(%)),[2]; [10],(11.4 ± 5.6^d) %
same,Number of Metaphase Cells (mean ± SD(%)),[2]; [10],(50.1 ± 8.6^d) %
same,Number of Normal Interphase Cells (mean ± SD(%)),[2]; [10],(38.5 ± 6.8^d) %
same,Number of Abnormal Cells,[2]; [11],232
same,Number of Metaphase Cells,[2]; [11],1017
same,Number of Normal Interphase Cells,[2]; [11],784
same,Number of Abnormal Cells (mean ± SD(%)),[2]; [12],(3.1 ± 1.5^ef) %
same,Number of Metaphase Cells (mean ± SD(%)),[2]; [12],(77.7 ± 5.4^e) %
same,Number of Normal Interphase Cells (mean ± SD(%)),[2]; [12],(19.2 ± 5.0^ef) %
same,Number of Abnormal Cells,[2]; [13],63
same,Number of Metaphase Cells,[2]; [13],1614
same,Number of Normal Interphase Cells,[2]; [13],398
same,Number of Abnormal Cells (mean ± SD(%)),[2]; [14],(3.2 ± 1.7^f) %
same,Number of Metaphase Cells (mean ± SD(%)),[2]; [14],(81.2 ± 5.0^f) %
same,Number of Normal Interphase Cells (mean ± SD(%)),[2]; [14],(15.6 ± 3.3^f) %
same,Number of Abnormal Cells,[2]; [15],68
same,Number of Metaphase Cells,[2]; [15],1728
same,Number of Normal Interphase Cells,[2]; [15],330
same,M phase cells among the collected cells,[3]; [16],99.1%
same,normal metaphase cells among the collected cells (243/246),[3]; [16],98.8%
same,Number of Abnormal Interphase Cells,[3]; [17],0
same,Number of Abnormal Metaphase Cells,[3]; [17],3
same,Number of Normal Interphase Cells,[3]; [17],3
same,Number of Normal Metaphase Cells,[3]; [17],243
same,Number of Abnormal Interphase Cells (mean ± SD(%)),[3]; [18],(0.0 ± 0.0) %
same,Number of Abnormal Metaphase Cells (mean ± SD(%)),[3]; [18],(1.3 ± 2.5) %
same,Number of Normal Interphase Cells (mean ± SD(%)),[3]; [18],(1.0 ± 1.1) %
same,Number of Normal Metaphase Cells (mean ± SD(%)),[3]; [18],(97.8% ± 2.1)
